Measured values reported in patent US8487003B2, “Treatment of cancer by administration of perfluorooctanoic acid” (CXR Biosciences Limited, priority 2001, dated 2013).

Experiments:
male Fischer 344 rats = assay: APFO in diet of male Fischer 344 rats for up to one year; type: in vivo, rat; details: 300 ppm in diet
Procedure: Body weights were initially determined daily and then weekly. Food consumption was determined weekly. Clinical observations were made daily.
Rats were sacrificed at 1, 2, 7, 14, 28, 90, 182 and 365 days. There were 8 rats per group. At sacrifice blood was sampled by cardiac puncture and submitted for clinical chemistry.

C57BL/6J-ob/ob mice = assay: Obese ob/ob mouse model, oral gavage daily for 14 days; type: in vivo
Procedure: (§1) The C57BL/6J-ob/ob mouse is an obese, leptin-deficient animal that is widely accepted as a model of obesity and diabetes. Age-paired, disease-free (lean) animals (C57BL/6J-+/+) were also included in the study to observe the ‘normal’ response.
(§2) One group of 10 ob/ob mice was also treated with vehicle (water) alone.
(§3) Twenty-four hours after the last dose the animals were killed by an increasing concentration of carbon dioxide. Blood was collected by cardiac puncture and plasma prepared and stored at −70° C. until analysed. Major tissues were weighed, sampled, flash frozen in liquid nitrogen and stored at −70° C.
(§4) Plasma was analysed for triglycerides, cholesterol and glucose using kits purchased from Sigma (Poole, Dorset). Concentrations of plasma insulin and leptin were determined using commercially available enzymeimmunoassay-based kits from Amersham Life Sciences and Crystalchem Inc., (Chicago) respectively. All assays were carried out as specified by the manufacturer.

C57BL/6J-+/+ mice = assay: Lean disease-free +/+ mice, oral gavage daily for 14 days; type: in vivo, mouse; details: 25 mg/kg/day
Procedure: as §1, §2, §3, §4

GK/Mol rats = assay: Diabetic GK/Mol rat model, oral gavage daily for 14 days; type: in vivo
Procedure: (§5) The GK/Mol rat is a non-obese, diabetic animal that is widely accepted as a model of Type II diabetes. In order to measure the ‘normal’ response, non-diabetic Wistar rats were also used in the study.
(§6) One group of 10 GK/Mol rats was also treated with vehicle (water) alone.
as §3
(§7) Plasma was analysed for, triglycerides, cholesterol, glucose, insulin and leptin as described in section 1.1.1.

Wistar rats = assay: Non-diabetic Wistar rats, oral gavage daily for 14 days; type: in vivo, rat
Procedure: as §5, §6, §3, §7

HT-29 cells = assay: In vitro cytotoxicity (MTT), HT-29; type: cell-based, human; details: HT-29, 4 hours exposure
Procedure: (§8) HT-29 cells (human colon tumour-derived), MCF7 cells (human breast cancer-derived) and HepG2 cells (human liver cancer-derived) were cultured in Dulbecco's Modified Eagles Medium (DMEM) supplemented with 10% heat-inactivated foetal calf serum, 2 mM L-glutamine, penicillin (50 IU/ml), streptomycin (50 μg/ml) and 1% non-essential amino acids. Cells were harvested by trypsinisation and diluted to 5×10^4 cells/ml, and 200 μl of cell suspension was plated into each well of a 96 well plate and allowed to attach overnight at 37° C. with 5% CO2. […] 20 μl of a 5 mg/1 m MTT solution was added to each well and the cells were incubated for 4 hours at 37° C. The medium was removed and 200 μl DMSO was added to dissolve formazan crystals. Plates were read at 570 nm and background at 690 nm was subtracted.

MCF7 cells = assay: In vitro cytotoxicity (MTT), MCF7; type: cell-based, human; details: MCF7, 4 hours exposure
Procedure: as §8

HepG2 cells = assay: In vitro cytotoxicity (MTT), HepG2; type: cell-based, human; details: HepG2, 4 hours exposure
Procedure: as §8

HT-29 xenograft = HT-29 xenograft model in nude mice; type: in vivo, nu/nu mice; details: for lag phase of tumour growth: ip 3 times per week
Procedure: Athymic nude (nu/nu) mice from ICRF stock (HsdOla:ICRF-nu) were obtained from Clare Hall (Pofters Bar, UK). All animals were female and approximately 9 weeks old. Animals, housed in isolator cages and handled under laminar flow, were divided into one control group and two treatment groups, with 5 female mice per group for both the prophylactic and therapeutic schedules
HT-29 cells were cultured according to the conditions described in section 2.1.1. Cells were harvested, pooled by centrifugation and resuspended in 5 ml medium to which 5 ml Matrigel (basement membrane matrix) was added. 100 μl of cell suspension was injected subcutaneously into each flank of the mice (1.75×10^6 cells per flank).
The volume of the dosing solution was 10 ml/kg bodyweight. Control animals received an equivalent volume of water.
Animal bodyweights were recorded throughout the study. Tumour growth was measured 3 times per week using digital calipers and the volume was calculated using the formula:
Where d1=mean length (n=2) and d2=mean width (n=2). (NB, n=4 if tumour was an irregular shape).
The maximum permitted tumour volume, according to the terms of the Home Office license, was 1.44 cm^3. Results were expressed graphically for each time point as mean tumour volumes. Tumour weights were recorded at the end of the study, and tumour samples were either snap frozen in liquid nitrogen or fixed in formal saline for further analysis.

mouse PPAR alpha = biological target: T1, mouse PPAR alpha (Mus musculus, UniProt P23204); assay: Mouse PPAR alpha transactivation assay in COS-1 cells; type: cell-based; details: luciferase reporter, 16 hours, read-out: EC50, activation of mouse PPAR alpha
T1 construct: expressed in transfected cells; host or cells: COS-1 cells
T1 sequence (P23204 1-468): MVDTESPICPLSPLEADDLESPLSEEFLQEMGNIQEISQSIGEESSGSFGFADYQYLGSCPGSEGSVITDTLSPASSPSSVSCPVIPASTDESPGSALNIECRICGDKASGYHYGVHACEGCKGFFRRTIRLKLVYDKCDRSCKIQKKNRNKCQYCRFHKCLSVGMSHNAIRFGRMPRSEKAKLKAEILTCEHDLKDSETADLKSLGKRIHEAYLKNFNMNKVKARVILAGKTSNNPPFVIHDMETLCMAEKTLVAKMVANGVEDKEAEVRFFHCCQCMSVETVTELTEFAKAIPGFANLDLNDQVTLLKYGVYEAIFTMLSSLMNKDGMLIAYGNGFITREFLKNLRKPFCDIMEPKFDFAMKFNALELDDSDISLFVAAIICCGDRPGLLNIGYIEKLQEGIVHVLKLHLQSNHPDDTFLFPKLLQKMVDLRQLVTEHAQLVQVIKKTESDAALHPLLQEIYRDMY

N.O=C(O)C(F)(F)C(F)(F)C(F)(F)C(F)(F)C(F)(F)C(F)(F)C(F)(F)F [APFO, ammonium perfluorooctanoate]
adverse clinical symptoms or changes in activity (male Fischer 344 rats): not accompanied by any adverse clinical symptoms
bodyweight gain (male Fischer 344 rats): marked reductions
plasma triglycerides (male Fischer 344 rats; 7 days and beyond): decreased
food consumption per rat, % of control values (male Fischer 344 rats; after first week): 80-90%
plasma cholesterol concentration (male Fischer 344 rats; all time points (1-365 days)): decreased
plasma glucose concentration (male Fischer 344 rats; all time points (1-365 days)): decreased
plasma insulin concentration (male Fischer 344 rats; all time points (1-365 days)): decreased
decrease of food consumed per unit bodyweight (male Fischer 344 rats; first week): approximately 30%
food consumption per rat, % of control consumption (male Fischer 344 rats; first week of treatment): approximately 50%
body weights lower than concurrent controls (male Fischer 344 rats; up to one year): 25-30%
other adverse clinical observations (C57BL/6J-ob/ob mice; 5, 15, 25 mg/kg/day, 14 days): No other adverse clinical observations
reduction in plasma insulin concentration (C57BL/6J-ob/ob mice; all treated ob/ob mice (5, 15, 25 mg/kg/day)): greater than 90%
plasma triglyceride concentration (C57BL/6J-ob/ob mice; ob/ob, 5 mg/kg/day): no effect
reduction of plasma glucose (C57BL/6J-ob/ob mice; ob/ob, 5 mg/kg/day): approximately 50%
bodyweight (C57BL/6J-ob/ob mice; ob/ob, 5 mg/kg/day, 14 days): unaffected
bodyweight loss over the study period (C57BL/6J-ob/ob mice; ob/ob, 15 mg/kg/day, 14 days): 20%
reduction in plasma cholesterol concentration (C57BL/6J-ob/ob mice; ob/ob, 25 mg/kg/day): ~30%
bodyweight loss as percentage of initial bodyweight (C57BL/6J-ob/ob mice; ob/ob, 25 mg/kg/day, 14 days): 33%
plasma triglyceride, % of control values (C57BL/6J-ob/ob mice; ob/ob, 15 or 25 mg/kg/day): 40%
plasma glucose, % of control values (C57BL/6J-ob/ob mice; ob/ob, 15 or 25 mg/kg/day, dose-related): approximately 20%
epididymal fat pad weight (C57BL/6J-ob/ob mice; ob/ob, dose-related): decreased
food consumption lower than control mice (C57BL/6J-ob/ob mice; ob/ob, high dose 25 mg/kg/day): 76%
food consumption lower than control mice (C57BL/6J-ob/ob mice; ob/ob, intermediate dose 15 mg/kg/day): 53%
reduction in plasma cholesterol concentration (C57BL/6J-ob/ob mice; ob/ob, low and mid dose levels (5, 15 mg/kg/day)): not evident
food consumption lower than control mice (C57BL/6J-ob/ob mice; ob/ob, low dose 5 mg/kg/day): 17%
epididymal fat pad weight (C57BL/6J-+/+ mice): decreased
overall food consumption lower than +/+ controls (C57BL/6J-+/+ mice): 31%
plasma glucose, % of control values (C57BL/6J-+/+ mice): 55%
plasma insulin concentration (C57BL/6J-+/+ mice): marked reduction
plasma leptin concentration decreased (C57BL/6J-+/+ mice): to, or below the level of quantitation
plasma triglycerides, % of control values (C57BL/6J-+/+ mice): 35%
reduction in plasma cholesterol concentration (C57BL/6J-+/+ mice): ~30%
bodyweight loss as percentage of initial bodyweight (C57BL/6J-+/+ mice; 14 days): 26%
plasma leptin concentration (GK/Mol rats; GK/Mol rats): no differences
plasma glucose, % of control values (GK/Mol rats; GK/Mol, 30 mg/kg/day): about 85%
total food consumption, % of control values (GK/Mol rats; GK/Mol, 3, 10, 30 mg/kg, not related to dose): 86-98%
plasma insulin, % of control values (GK/Mol rats; GK/Mol, dose-dependent reduction reaching this value): about 10%
body weight gain, % of control values (GK/Mol rats; GK/Mol, high dose 30 mg/kg): 44%
body weight gain, % of control values (GK/Mol rats; GK/Mol, low dose 3 mg/kg): 90%
body weight gain, % of control values (GK/Mol rats; GK/Mol, mid dose 10 mg/kg): 71%
bodyweight gain (Wistar rats; 30 mg/kg): no effect
food consumption versus controls (Wistar rats; 30 mg/kg): no difference
plasma cholesterol, % of control values (Wistar rats; 30 mg/kg): 73%
plasma insulin, % of control values (Wistar rats; 30 mg/kg): about 10%
group mean plasma leptin lower than controls by (Wistar rats; 30 mg/kg/day): approximately 40%
concentration eliciting a cytotoxic effect (HT-29 cells): exceeding 500 μM
concentration eliciting a cytotoxic effect (MCF7 cells): exceeding 500 μM
concentration eliciting a cytotoxic effect (HepG2 cells): exceeding 500 μM
animal body weight versus control (HT-29 xenograft; prophylactic and therapeutic groups, 15 and 25 mg/kg ip): no significant difference
macroscopic appearance of tumours (HT-29 xenograft; prophylactic group, control tumours solid): fluid-filled
tumour volume course (HT-29 xenograft; prophylactic, 15 mg/kg ip): continued to increase
tumour weight smaller than in control animals (HT-29 xenograft; prophylactic, 15 mg/kg ip): 22%
time after which tumour growth reached a plateau (HT-29 xenograft; prophylactic, 25 mg/kg ip): 26 days
tumour weight smaller than in control animals (HT-29 xenograft; prophylactic, 25 mg/kg ip): 58%
lag phase of tumour growth (HT-29 xenograft; prophylactic, control 15 days): 22 days
tumour weight smaller than controls (HT-29 xenograft; therapeutic, 15 mg/kg ip): 45%
tumour weight smaller than controls (HT-29 xenograft; therapeutic, 25 mg/kg ip): 37%
plateau of tumour growth (HT-29 xenograft; therapeutic, highest dose group 25 mg/kg, study incomplete): No plateau was reached
lag phase of tumour growth (HT-29 xenograft; therapeutic, control 17 days): 26 days
EC50 (mouse PPAR alpha): 102 µM
